From US20130244929A1 (priority 2010, published 2013)
Like-named read-outs stand apart in the source and are kept apart here.

Legend:
[1] = biological target: T1, SpsB (Staphylococcus aureus, UniProt P0A070); experiment: Inhibition of SpsB enzyme activity (fluorescence-based assay, bacterial membrane fraction); format: biochemical
T1 construct: using a bacterial membrane fraction as a source of SpsB; from tissue
T1 sequence (P0A070 1-191): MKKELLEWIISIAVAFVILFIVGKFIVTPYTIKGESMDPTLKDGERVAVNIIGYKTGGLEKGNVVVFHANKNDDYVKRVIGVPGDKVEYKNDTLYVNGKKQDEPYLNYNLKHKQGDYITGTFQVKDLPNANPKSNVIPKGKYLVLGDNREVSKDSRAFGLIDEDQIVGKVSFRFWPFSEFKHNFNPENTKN
Description: Signal peptidase enzyme activity was measured in a fluorescence-based assay using a bacterial membrane fraction as a source of SpsB (See Bruton et al., 2003, Eur J Med Chem 38:351-356). The SpsB substrate is a synthetic lipopeptide, decanoyl-K(DABCYL)-TPTAKA↓ASKKD-D(EDANS)—NH2 (prepared by JPT Peptide Technologies, Berlin, Germany). Assays were performed with 20 μM peptide substrate (Km≈5 μM) and reactions were initiated with enzyme addition (final protein concentration of 0.6 mg/mL). SpsB mediated cleavage of the peptide substrate was detected as an increase in fluorescence (excitation 340 nm/emission 460 nm).

[2] = test system: MB 5393 (COL), a methicillin-resistant S. aureus strain; experiment: Determination of minimum and synergistic inhibitory concentration; format: cell-based; settings: for SIC: presence of imipenem (4 μg/mL); for MIC: Staphylococcus aureus
Description: MB 5393 (COL), a methicillin-resistant S. aureus strain, was inoculated into Trypticase Soy Broth (TSB, BBL) and grown in a humidified incubator for 18 hours with rotary shaking at 220 rpm and kept on ice until used.
A quantity of imipenem (Merck Chemical Collection) was weighed out and dissolved into sterile 10 mM MOPS buffer at pH 7. This solution was diluted to 1600 μg/mL, 200 μg/mL, and 25 μg/mL and filter-sterilized through a 0.45 μm filter. From these solutions, seven 1:2 serial dilutions were prepared using sterile 10 mM MOPS buffer at pH 7. The final concentration ranges tested were 128 to 2 μg/mL, 16 to […], and 2 to 0.03 μg/mL. The solutions were kept refrigerated until used.
Test compounds (EXAMPLES 1-67) were prepared in sterile water or DMSO at a concentration of 3.2 mg/mL. From this solution, 11 serial 1:2 dilutions were prepared using sterile water. The final concentration range tested was 64 to 0.0313 μg/mL. The solutions were kept refrigerated until used.
Two-fold serial dilutions of test compounds were tested in the presence and absence of subinhibitory concentrations of imipenem (4 μg/mL) in 96-well U bottom microliter dishes in microbiological growth media. The plates were inoculated with bacterial cells to a final concentration of ˜5×10^5 CFU/mL. Test plates were incubated stationery at 37° C. for 22-24 hours.
After 22 hours of incubation, the Minimum inhibitory concentrations (MICs) were determined, defined as the lowest concentration of antibiotic that prevented all visible growth in the absence of imipenem. Synergistic inhibitory concentrations (SICs) were determined, defined as the lowest concentration of antibiotic that prevented all visible growth in the presence of imipenen.

[3] = MRSA COL, absence of imipenem, 22 hours, read-out: MIC

Row | Structure (SMILES) | IC50 [1] [nM] | SIC ([2]; MRSA COL, 22 hours) | MIC [2, 3] [µg/mL] | MIC ([2]; MRSA, 22 h) [µg/mL] | IC50 ([1]; 20 μM peptide substrate, read-out: SpsB IC50) [nM]
1 | CCCc1ccc(-c2ccc(C(=O)NCCC(=O)N[C@H](CCCCN)C(=O)N(C)[C@@H]3C(=O)N[C@@H](C)C(=O)N[C@H](C(=O)O)Cc4ccc(O)c(c4)-c4cc3ccc4O)cc2)cc1.O=C(O)C(F)(F)F [EXAMPLE 4, (5R)-6-[[(7S,10S,13S)-13-carboxy-3,18-dihydroxy-10-methyl-8,11-dioxo-9,12-diazatricyclo[13.3.1.1^2,6]icosa-1(19),2(20),3,5,15,17-hexaen-7-yl](methyl)amino]-6-oxo-5-[(3-{[(4′-propylbipherryl-4-yl)carbonyl]amino}propanoyl)amino]hexan-1-aminium trifluoroacetate] | > 50 | I (I: SIC >1) | > 8 | – | –
2 | CCC[C@H]1CC[C@H](c2ccc(-c3ccc(C(=O)NCCC(=O)N[C@@H](CCCCN)C(=O)N(C)[C@@H]4C(=O)N[C@@H](C)C(=O)N[C@H](C(=O)O)Cc5ccc(O)c(c5)-c5cc4ccc5O)cc3)cc2)CC1 [EXAMPLE 46] | < 10 | G (G: SIC <0.0625) | – | < 1 | –
3 | CCCc1ccc(-c2ccc(C(=O)NCCC(=O)N[C@@H](CCCN)C(=O)N(C)[C@@H]3C(=O)N[C@@H](C)C(=O)N[C@H](C(=O)O)Cc4ccc(O)c(c4)-c4cc3ccc4O)cc2)cc1 [EXAMPLE 55] | < 10 | H (H: SIC 0.062-1) | – | < 1 | –
4 | CCCCCCCCCc1ccc(-c2ccc(C(=O)NCCC(=O)N[C@@H](CCCCN)C(=O)N(C)[C@@H]3C(=O)N[C@@H](C)C(=O)N[C@H](C(=O)O)Cc4ccc(O)c(c4)-c4cc3ccc4O)c(C)c2)cc1 [EXAMPLE 43] | < 10 | G (G: SIC <0.0625) | – | < 1 | –
5 | CCCc1ccc(-c2ccc(C(=O)NCCC(=O)NC(CCCCN)C(=O)N(C)[C@@H]3C(=O)N[C@@H](C)C(=O)N[C@H](C(=O)O)Cc4cccc(c4)-c4cccc3c4)cc2)cc1.O=C(O)C(F)(F)F (stereo partly drawn) [EXAMPLE 9, 6-[[(7S,10S,13S)-13-carboxy-10-methyl-8,11-dioxo-9,12-diazatricyclo[13.3.1.1^2,6]icosa-1(19),2(20),3,5,15,17-hexaen-7-yl](methyl)amino]-6-oxo-5-[(3-{[(4′-propylbiphenyl-4-yl)carbonyl]amino}propanoyl)amino]hexan-1-aminium trifluoroacetate] | 10 to 50 | H (H: SIC 0.062-1) | > 8 | – | –
6 | CCCCCCCCCc1ccc(-c2ccc(C(=O)NCCC(=O)N3CC[C@H]3C(=O)N(C)[C@@H]3C(=O)N[C@@H](C)C(=O)N[C@H](C(=O)O)Cc4ccc(O)c(c4)-c4cc3ccc4O)cc2)cc1 [EXAMPLE 19, (8S,11S,14S)-3,18-dihydroxy-11-methyl-14-(methyl{[(2)-1-(3-{[(4′-nonylbiphenyl-4-yl)carbonyl]amino}propanoyl)azetidin-2-yl]carbonyl}amino)-10,13-dioxo-9,12-diazatricyclo[13.3.1.1^2,6]icosa-1(19),2(20),3,5,15,17-hexaene-8-carboxylic acid] | < 10 | G (G: SIC <0.0625) | 1 to 8 | – | –
7 | CC(C)CCCC(C)CCc1ccc(-c2ccc(C(=O)NCCC(=O)N[C@@H](CCCCN)C(=O)N(C)[C@@H]3C(=O)N[C@@H](C)C(=O)N[C@H](C(=O)O)Cc4ccc(O)c(c4)-c4cc3ccc4O)cc2)cc1 (stereo partly drawn) [EXAMPLE 25] | < 10 | G (G: SIC <0.0625) | – | < 1 | –
8 | CCCc1ccc(-c2ccc(C(=O)NCCC(=O)N3CCC[C@@H]3C(=O)N(C)[C@@H]3C(=O)N[C@@H](C)C(=O)N[C@H](C(=O)O)Cc4ccc(OC)c(c4)-c4cc3ccc4OC)cc2)cc1 [EXAMPLE 13, (8S,11S,14S)-3,18-dimethoxy-11-methyl-14-(methyl{[(2R)-1-(3-{[(4′-propylbiphenyl-4-yl)carbonyl]amino}propanoyl)pyrrolidin-2-yl]carbonyl}amino)-10,13-dioxo-9,12-diazatricyclo[13.3.1.1^2,6]icosa-1(19),2(20),3,5,15,17-hexaene-8-carboxylic acid] | > 50 | I (I: SIC >1) | > 8 | – | –
9 | CCCCCCCc1ccc2cc(C(=O)NCCC(=O)N[C@@H](CCCCN)C(=O)N(C)[C@@H]3C(=O)N[C@@H](C)C(=O)N[C@H](C(=O)O)Cc4ccc(O)c(c4)-c4cc3ccc4O)cnc2c1 [EXAMPLE 61] | 10 to 50 | H (H: SIC 0.062-1) | – | < 1 | –
10 | CCCCCCCCCc1ccc(-c2ccc(C(=O)NCCC(=O)N3C[C@H](N)C[C@H]3C(=O)N(C)[C@@H]3C(=O)N[C@@H](C)C(=O)N[C@H](C(=O)O)Cc4ccc(O)c(c4)-c4cc3ccc4O)cc2)cc1 [EXAMPLE 40] | < 10 | G (G: SIC <0.0625) | – | < 1 | –
11 | CCCc1ccc(-c2ccc(C(=O)NCCC(=O)N[C@@H](CCCNC(=N)N)C(=O)N(C)[C@@H]3C(=O)N[C@@H](C)C(=O)N[C@H](C(=O)O)Cc4ccc(O)c(c4)-c4cc3ccc4O)cc2)cc1.O=C(O)C(F)(F)F [EXAMPLE 8, ({(4S)-5-[[(7S,10S,13S)-13-carboxy-3,18-dihydroxy-10-methyl-8,11-dioxo-9,12-diazatricyclo[13.3.1.1^2,6]icosa-1(19),2(20),3,5,15,17-hexaen-7-yl](methyl)amino]-5-oxo-4-[(3-{[(4′-propylbiphenyl-4-yl)carbonyl]amino}propanoyl)amino]pentyl}amino)(imino)methanaminium trifluoroacetate] | 10 to 50 | H (H: SIC 0.062-1) | 1 to 8 | – | –
12 | CCCc1ccc(-c2ccc(C(=O)NCCC(=O)N(CCCCN)CC(=O)N(C)[C@@H]3C(=O)N[C@@H](C)C(=O)N[C@H](C(=O)O)Cc4ccc(OC)c(c4)-c4cc3ccc4OC)cc2)cc1.O=C(O)C(F)(F)F [EXAMPLE 11, 4-[{2-[[(7S,10S,13S)-13-carboxy-3,18-dimethoxy-10-methyl-8,11-dioxo-9,12-diazatricyclo[13.3.1.1^2,6]icosa-1(19),2(20),3,5,15,17-hexaen-7-yl](methyl)amino]-2-oxoethyl}(3-{[(4′-propylbiphenyl-4-yl)carbonyl]amino}propanoyl)amino]butan-1-aminium trifluoroacetate] | – | H (H: SIC 0.062-1) | > 8 | – | 10 to 50
13 | C[C@@H]1NC(=O)[C@@H](N(C)C(=O)[C@H](CCCCN)NC(=O)CCNC(=O)c2ccc(-c3ccc(C(C)(C)C)cc3)cc2)c2ccc(O)c(c2)-c2cc(ccc2O)C[C@@H](C(=O)O)NC1=O [EXAMPLE 42] | < 10 | H (H: SIC 0.062-1) | – | < 1 | –
14 | CCCCCCc1ccc(-c2ccc(C(=O)NCCC(=O)N[C@@H](CCCCN)C(=O)N(C)[C@@H]3C(=O)N[C@@H](C)C(=O)N[C@H](C(=O)O)Cc4ccc(O)c(c4)-c4cc3ccc4O)cc2)cc1 [EXAMPLE 31] | < 10 | G (G: SIC <0.0625) | – | < 1 | –
15 | CCCCCCCCCCc1ccc2cc(C(=O)NCCC(=O)N[C@@H](CCCCNC(C)=O)C(=O)N(C)[C@@H]3C(=O)N[C@@H](C)C(=O)N[C@H](C(=O)O)Cc4ccc(O)c(c4)-c4cc3ccc4O)ccc2c1 [EXAMPLE 33] | < 10 | G (G: SIC <0.0625) | > 8 | – | –
16 | CCCCCCCCCc1ccc(-c2ccc(C(=O)NCCC(=O)N[C@@H](CCCN)C(=O)N(C)C3C(=O)N[C@@H](C)C(=O)N[C@H](C(=O)O)Cc4ccc(O)c(c4)-c4cc3ccc4O)cc2)cc1 (stereo partly drawn) [EXAMPLE 24] | < 10 | G (G: SIC <0.0625) | – | < 1 | –
